Experimental data from patent publication US20230373985A1 (Origenis Gmbh, priority 2020, published 2023).
Where “and” joins values, the source holds several entries; their conditions need not be identical. Identical values can stand only once.

Legend:
[1] = molecular target: T1, wt human JAK1, catalytic site (Homo sapiens, UniProt P23458); assay: HTRF KinEASE assay, JAK1; type: biochemical; settings: 2.5 μM ATP; read-out: IC50, Activity Toward JAK1
T1 construct: wt human JAK1, catalytic site; purchased ThermoFisher
In short: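 Two-step HTRF KinEASE assay: compound, kinase/biotinylated TK substrate and ATP were incubated at least 30 min at room temperature. Antibody plus streptavidin-XL665 was then added and plates were read after 60 min. Inhibition was derived from emission ratios according to the kit protocol.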

[2] = molecular target: T2, wt human TYK2, catalytic site (Homo sapiens, UniProt P29597); assay: HTRF KinEASE assay, TYK2; type: biochemical; settings: 1 μM ATP; read-out: IC50, Activity Toward TYK2
T2 construct: wt human TYK2, catalytic site; purchased SignalChem
T2 sequence (P29597 897-1176 limits assumed): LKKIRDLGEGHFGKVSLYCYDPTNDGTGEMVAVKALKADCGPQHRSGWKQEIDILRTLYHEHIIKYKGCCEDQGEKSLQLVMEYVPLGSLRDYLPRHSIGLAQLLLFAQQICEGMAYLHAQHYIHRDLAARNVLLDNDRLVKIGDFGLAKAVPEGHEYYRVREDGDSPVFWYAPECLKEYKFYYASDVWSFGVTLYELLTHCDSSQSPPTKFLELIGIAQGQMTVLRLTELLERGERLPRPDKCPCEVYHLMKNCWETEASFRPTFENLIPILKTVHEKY
In short: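 HTRF KinEASE-TK readout with 1 μM biotinylated TK substrate in 1× kinase buffer, ≥30 min at room temperature, then antibody/streptavidin-XL665 detection for 60 min. TYK2 at 2 nM with 1 μM ATP; JAK2 at 1 nM with 100 μM ATP. Analysis uses emission ratios.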

T1 sequence (P23458 875-1153 limits assumed): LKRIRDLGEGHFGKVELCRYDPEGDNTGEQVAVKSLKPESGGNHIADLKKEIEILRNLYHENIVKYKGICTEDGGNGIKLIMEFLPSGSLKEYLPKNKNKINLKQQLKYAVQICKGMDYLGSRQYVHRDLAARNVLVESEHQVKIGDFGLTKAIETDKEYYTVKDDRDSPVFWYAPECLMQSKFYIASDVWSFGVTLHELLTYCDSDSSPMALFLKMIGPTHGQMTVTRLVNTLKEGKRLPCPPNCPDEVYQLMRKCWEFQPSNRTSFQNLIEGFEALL

Row | SMILES | IC50 [1] | IC50 [2]
1 | NC(=O)c1nn(-c2c(Cl)cccc2Cl)cc1Nc1ccc(C(=O)N2CC(F)(F)C(F)(F)C2)nc1 [compound 362, 1-(2,6-dichlorophenyl)-4-((6-(3,3,4,4-tetrafluoropyrrolidine-1-carbonyl)pyridin-3-yl)amino)-1H-pyrazole-3-carboxamide] | 100 to 1000 nM | 10 to 100 nM
2 | Cc1ncnn1-c1ccc(Nc2nn(-c3c(Cl)cccc3Cl)nc2C(N)=O)nc1 [compound 156, 2-(2,6-dichlorophenyl)-5-((5-(5-methyl-1H-1,2,4-triazol-1-yl)pyridin-2-yl)amino)-2H-1,2,3-triazole-4-carboxamide] | 10 to 100 nM | 10 to 100 nM
3 | NC(=O)c1nn(-c2c(Cl)cccc2Cl)nc1Nc1ccc(-n2nncc2C(F)(F)F)cn1 [compound 157, 2-(2,6-dichlorophenyl)-5-((5-(5-(trifluoromethyl)-1H-1,2,3-triazol-1-yl)pyridin-2-yl)amino)-2H-1,2,3-triazole-4-carboxamide] | 10 to 100 nM | 100 to 1000 nM
4 | CN(C)Cc1nc(C(F)(F)F)nn1-c1ccc(Nc2cn(-c3c(Cl)cccc3Cl)nc2C(N)=O)cc1 [compound 297, 1-(2,6-dichlorophenyl)-4-((4-(5-((dimethylamino)methyl)-3-(trifluoromethyl)-1H-1,2,4-triazol-1-yl)phenyl)amino)-1H-pyrazole-3-carboxamide] | 100 to 1000 nM | < 10 nM
5 | CN(C)CCc1nnnn1-c1ccc(Nc2cn(-c3c(Cl)cccc3Cl)nc2C(N)=O)cc1 [compound 273, 1-(2,6-dichlorophenyl)-4-((4-(5-(2-(dimethylamino)ethyl)-1H-tetrazol-1-yl)phenyl)amino)-1H-pyrazole-3-carboxamide] | 10 to 100 nM | 10 to 100 nM
6 | NC(=O)c1nn(-c2c(Cl)cccc2Cl)cc1Nc1ccc(C(=O)N2CC(F)(F)C(F)(F)C2)cc1 [compound 254, 1-(2,6-dichlorophenyl)-4-((4-(3,3,4,4-tetrafluoropyrrolidine-1-carbonyl)phenyl)amino)-1H-pyrazole-3-carboxamide] | 10 to 100 nM | < 10 nM
7 | Cc1cnnn1-c1ccc(Nc2cn(-c3c(Cl)cccc3Cl)nc2C(N)=O)nc1 [compound 432, 1-(2,6-dichlorophenyl)-4-((5-(5-methyl-1H-1,2,3-triazol-1-yl)pyridin-2-yl)amino)-1H-pyrazole-3-carboxamide] | 10 to 100 nM | 100 to 1000 nM
8 | N#Cc1cccc2nnc(-c3ccc(Nc4cn(-c5c(Cl)cccc5Cl)nc4C(N)=O)cn3)n12 [compound 476, 4-((6-(5-cyano-[1,2,4]triazolo[4,3-a]pyridin-3-yl)pyridin-3-yl)amino)-1-(2,6-dichlorophenyl)-1H-pyrazole-3-carboxamide] | 10 to 100 nM | 100 to 1000 nM
9 | Cn1cc(C(F)(F)F)nc1-c1ccc(Nc2cn(-c3c(Cl)cccc3Cl)nc2C(N)=O)nc1 [compound 433, 1-(2,6-dichlorophenyl)-4-((5-(1-methyl-4-(trifluoromethyl)-1H-imidazol-2-yl)pyridin-2-yl)amino)-1H-pyrazole-3-carboxamide] | 10 to 100 nM | 10 to 100 nM
10 | COCc1nc(C(F)(F)F)nn1-c1ccc(Nc2cn(-c3c(Cl)cccc3Cl)nc2C(N)=O)cc1 [compound 281, 1-(2,6-dichlorophenyl)-4-((4-(5-(methoxymethyl)-3-(trifluoromethyl)-1H-1,2,4-triazol-1-yl)phenyl)amino)-1H-pyrazole-3-carboxamide] | 100 to 1000 nM | < 10 nM
11 | CC1(C)CN(C(=O)c2ccc(Nc3nn(-c4c(Cl)cccc4Cl)nc3C(N)=O)nc2)C1 [compound 165, 2-(2,6-dichlorophenyl)-5-((5-(3,3-dimethylazetidine-1-carbonyl)pyridin-2-yl)amino)-2H-1,2,3-triazole-4-carboxamide] | 100 to 1000 nM | 10 to 100 nM
12 | NC(=O)c1nn(-c2c(Cl)cccc2Cl)cc1Nc1ccc(C(=O)N2CCSCC2)cc1 [compound 467, 1-(2,6-dichlorophenyl)-4-((4-(thiomorpholine-4-carbonyl)phenyl)amino)-1H-pyrazole-3-carboxamide] | < 10 nM | < 10 nM
13 | NC(=O)c1nn(-c2c(Cl)cccc2Cl)cc1Nc1ccc(-n2nc(C(F)(F)F)nc2CO)nc1 [compound 385, 1-(2,6-dichlorophenyl)-4-((6-(5-(hydroxymethyl)-3-(trifluoromethyl)-1H-1,2,4-triazol-1-yl)pyridin-3-yl)amino)-1H-pyrazole-3-carboxamide] | 100 to 1000 nM | 10 to 100 nM
14 | Cc1csc2nnc(-c3ccc(Nc4cn(-c5c(Cl)cccc5Cl)nc4C(N)=O)cn3)n12 [compound 475, 1-(2,6-dichlorophenyl)-4-((6-(5-methylthiazolo[2,3-c][1,2,4]triazol-3-yl)pyridin-3-yl)amino)-1H-pyrazole-3-carboxamide] | 100 to 1000 nM | 100 to 1000 nM
15 | NC(=O)c1nn(-c2c(Cl)cccc2Cl)cc1Nc1ccc(N2CCCCC2=O)nc1 [compound 384, 1-(2,6-dichlorophenyl)-4-((6-(2-oxopiperidin-1-yl)pyridin-3-yl)amino)-1H-pyrazole-3-carboxamide] | 100 to 1000 nM | 100 to 1000 nM
16 | CC(C)(C)OC(=O)N[C@@H]1CCN(C(=O)c2ccc(Nc3cn(-c4c(Cl)cccc4Cl)nc3C(N)=O)cc2)C1 [compound 324, (R)-tert-butyl_(1-(4-((3-carbamoyl-1-(2,6-dichlorophenyl)-1H-pyrazol-4-yl)amino)benzoyl)pyrrolidin-3-yl)carbamate] | 100 to 1000 nM | 100 to 1000 nM
17 | Cc1nnnn1-c1ccc(Nc2cn(-c3c(Cl)cccc3Cl)nc2C(N)=O)cc1 [compound 243, 1-(2,6-dichlorophenyl)-4-((4-(5-methyl-1H-tetrazol-1-yl)phenyl)amino)-1H-pyrazole-3-carboxamide] | 10 to 100 nM | < 10 nM
18 | CC1(C)CN(C(=O)c2ccc(Nc3cn(-c4c(Cl)cccc4Cl)nc3C(N)=O)cn2)C1 [compound 464, 1-(2,6-dichlorophenyl)-4-((6-(3,3-dimethylazetidine-1-carbonyl)pyridin-3-yl)amino)-1H-pyrazole-3-carboxamide] | 100 to 1000 nM | 10 to 100 nM
19 | NC(=O)c1nn(-c2c(Cl)cccc2Cl)cc1Nc1ccc(CN2CCS(=O)(=O)CC2)nc1 [compound 455, 1-(2,6-dichlorophenyl)-4-((6-((1,1-dioxidothiomorpholino)methyl)pyridin-3-yl)amino)-1H-pyrazole-3-carboxamide] | 100 to 1000 nM | 10 to 100 nM
20 | Cc1cc(C)n(-c2ccc(Nc3cn(-c4c(Cl)cccc4Cl)nc3C(N)=O)cn2)n1 [compound 398, 1-(2,6-dichlorophenyl)-4-((6-(3,5-dimethyl-1H-pyrazol-1-yl)pyridin-3-yl)amino)-1H-pyrazole-3-carboxamide] | 100 to 1000 nM | 100 to 1000 nM
21 | NC(=O)c1nn(-c2c(Cl)cccc2Cl)nc1Nc1ccc(C(=O)N2CCSCC2)cc1 [compound 170, 2-(2,6-dichlorophenyl)-5-((4-(thiomorpholine-4-carbonyl)phenyl)amino)-2H-1,2,3-triazole-4-carboxamide] | < 10 nM | < 10 nM
22 | NC(=O)c1nn(-c2c(Cl)cccc2Cl)cc1Nc1ccc(C(=O)N2CCN(C3CC3)CC2)cn1 [compound 383, 4-((5-(4-cyclopropylpiperazine-1-carbonyl)pyridin-2-yl)amino)-1-(2,6-dichlorophenyl)-1H-pyrazole-3-carboxamide] | 100 to 1000 nM | 10 to 100 nM and 100 to 1000 nM
23 | CN(C)[C@H]1CCN(C(=O)c2ccc(Nc3cn(-c4c(Cl)cccc4Cl)nc3C(N)=O)nc2)C1 [compound 366, (S)-1-(2,6-dichlorophenyl)-4-((5-(3-(dimethylamino)pyrrolidine-1-carbonyl)pyridin-2-yl)amino)-1H-pyrazole-3-carboxamide] | 100 to 1000 nM | 10 to 100 nM
24 | NC(=O)c1nn(-c2c(Cl)cccc2Cl)cc1Nc1ccc(C(=O)N2CCOCC2)cn1 [compound 74, 1-(2,6-dichlorophenyl)-4-((5-(morpholine-4-carbonyl)pyridin-2-yl)amino)-1H-pyrazole-3-carboxamide] | 10 to 100 nM | 10 to 100 nM
25 | NC(=O)c1nn(-c2c(Cl)cccc2Cl)cc1Nc1ccc(C(=O)N2CC[C@@H](N3CCCC3)C2)nc1 [compound 356, (R)-4-((6-([1,3′-bipyrrolidine]-1′-carbonyl)pyridin-3-yl)amino)-1-(2,6-dichlorophenyl)-1H-pyrazole-3-carboxamide] | 100 to 1000 nM | 10 to 100 nM
26 | Cc1cc2nnc(-c3ccc(Nc4cn(-c5c(Cl)cccc5Cl)nc4C(N)=O)cn3)n2c(C)n1 [compound 470, 1-(2,6-dichlorophenyl)-4-((6-(5,7-dimethyl-[1,2,4]triazolo[4,3-c]pyrimidin-3-yl)pyridin-3-yl)amino)-1H-pyrazole-3-carboxamide] | 100 to 1000 nM | 100 to 1000 nM
27 | NC(=O)c1nn(-c2c(Cl)cccc2Cl)cc1Nc1cnc(C(=O)N2CCOCC2)cn1 [compound 401, 1-(2,6-dichlorophenyl)-4-((5-(morpholine-4-carbonyl)pyrazin-2-yl)amino)-1H-pyrazole-3-carboxamide] | 100 to 1000 nM | 100 to 1000 nM
